Data: US11629133B2, “Perfluoroaminoolefins and methods of making and using the same” (3M INNOVATIVE PROPERTIES COMPANY, priority 2018, dated 2023)

Key:
Assay type in all cases: physicochemical
[1] = Pour point, determined visually; conditions: lowest temperature at which sample flows within 5 sec held horizontally
Experimental: […] of the sample was placed in a vial and cooled in a liquid nitrogen-cooled pentane bath until it solidified. The sample was then allowed to warm slowly in the pentane bath by removal of the liquid nitrogen cooling source (typically an increase of 1-2° C./minute) and observed every 3-5° C.

[2] = Thermal stability of PE-1 with absorbents, purity by GC-FID
Experimental: GC-FID analysis was carried out on an Agilent Technologies 7890B GC System (Santa Clara Calif.) equipped with a Restek RtX-200 gas chromatography column (Bellefonte, Pa.) and helium carrier gas. Once material was injected into the column, the following temperature sequence was executed: 5 min hold at 40° C., 10° C./minute temperature increase over the span of 21 min to reach a final temperature of 250° C., and then a 15 min hold at 250° C. Data analysis by use of Agilent Open LAB CDSA ChemStation software enabled the determination of product purities and GC yields.
Thermal stability was measured by charging 1.0 g of PE-1 into glass vials and then adding a weighed amount of absorbent. The samples were stirred for 24 hours at 60° C., allowed to cool, and then analyzed by GC-FID for decomposition and purity changes.

[3] = Dielectric constant per ASTM D150-11; conditions: measured at 1 kHz
Experimental: The dielectric constant (tested per ASTM D150-11) of PE-1 was measured. The dielectric constant measured at 1 kHz was 1.98.

In the case of `FC1=C(N2C(F)(F)C(F)(F)C(F)(F)C2(F)F)C(F)(F)C(F)(F)C(F)(F)C1(F)F` [PE-1, 2,2,3,3,4,4,5,5-octafluoro-1-(perfluorocyclohex-1-en-1-yl)pyrrolidine], the Pour point [1] is reported as −34 °C, the “Purity, %” value ([2]; 4 Angstrom Molecular Sieves, stirred 24 hours at 60° C.) is reported as 97.3% and the “Purity, %” value ([2]; Activated Carbon, stirred 24 hours at 60° C.) is reported as 97.7%. For the same compound, the “Purity, %” value ([2]; Basic Alumina, stirred 24 hours at 60° C.) was 97.6%, the “Purity, %” value ([2]; K2CO3, stirred 24 hours at 60° C.) was 97.6% and the “Purity, %” value ([2]; No Absorbent, stirred 24 hours at 60° C.) was 97.7%. The “Purity, %” value ([2]; Silica Gel, stirred 24 hours at 60° C.) was 97.7% and the dielectric constant [3] was 1.98.

`FC1=C(N2C(F)(F)C(F)(F)C(F)(F)C2(F)F)C(F)(F)C(F)(F)C1(F)F` [PE-2, 2,2,3,3,4,4,5,5-octafluoro-1-(perfluorocyclopent-1-en-1-yl)pyrrolidine] showed a Pour point [1] of −33 °C.

For “2,2,3,3,4,4,5,5-octafluoro-1-(perfluoropent-2-en-3-yl)pyrrolidine and 2,2,3,3,4,4,5,5-octafluoro-1-(perfluoropent-2-en-2-yl)pyrrolidine [PE-4]”, the Pour point [1] was −90 °C.

`FC1=C(N2C(F)(F)C(F)(F)OC(F)(F)C2(F)F)C(F)(F)C(F)(F)C1(F)F` [PE-3, 2,2,3,3,5,5,6,6-octafluoro-4-(perfluorocyclopent-1-en-1-yl)morpholine] showed a Pour point [1] of −49 °C.
